Assay [1] has as its system HeLa. The assay can be described thus: Inhibitory concentration against human cervical carcinoma cell line at 48 hours. It is filed as functional, cell-based.
A short description of assay [2]: Inhibitory concentration against human esophagus cancer cell line at 72 hours. Format: functional, cell-based. The note with it: cancer cell lines.

In brackets after ≈: the same amount, converted by molar mass.

Turning to `Cc1cccc(NC23c4ccc(C)cc4NC4(COC5C4OC[C@H]5O)C2O[C@H]2C3OC[C@H]2O)c1` (some centres not stated), the IC50 – broadly, the concentration needed to halve the response being measured – in assay [1] was found to be 276 µg/mL (≈ 592 µM); in assay [2], 95 µg/mL (≈ 204 µM).
For `O[C@@H]1COC2C1OCC21Nc2ccccc2[C@]2(Nc3ccccc3)C3OC[C@@H](O)C3OC12` (some centres not stated) the same measures were > 1000 µg/mL and > 1000 µg/mL.
On the same counts, the results for `COc1ccc(N[C@]23c4cc(OC)ccc4NC4(COC5[C@H](O)CO[C@@H]54)C2OC2C3OC[C@H]2O)cc1` (some centres not stated) are 648 µg/mL (≈ 1300 µM) and > 1000 µg/mL.
Take `Cc1ccc(N[C@]23c4cc(C)ccc4NC4(COC5C4OC[C@H]5O)C2OC2C3OC[C@H]2O)cc1` (some centres not stated): the results for the IC50 in assay [1] and in assay [2] were > 1000 µg/mL and 240 µg/mL (≈ 514 µM), respectively.
Take `CC(=O)O[C@@H]1COC2C1OCC21Nc2ccc(C)cc2[C@]2(Nc3ccc(C)cc3)C3OC[C@@H](OC(C)=O)C3OC12` (some centres not stated): the values for the concentration for half-maximal inhibition (IC50) in assay [1] and in assay [2] were 150 µg/mL (≈ 272 µM) and 135 µg/mL (≈ 245 µM), respectively.
As to `Oc1ccc(NC23c4cc(O)ccc4NC4(COC5C4OC[C@H]5O)C2OC2C3OC[C@H]2O)cc1` (some centres not stated), the IC50 is > 1000 µg/mL in assay [1] and 78 µg/mL (≈ 166 µM) in assay [2].
